From patent US4816447A, “Anti-viral guanine compounds” (priority 1984, dated 1989)
One block for each compound: values may come before it.

Experiments:
[1] = Comparative solubilities in pH 7.2 buffer at 25°; assay type: physicochemical; details: aqueous buffer; pH 7.2 phosphate buffer, 25°
Method: Comparative Solubilities in pH 7.2 Buffer at 25°
Solubilities were determined by suspending an excess amount of the compound in approximately 0.15 molar phosphate buffer (pH 7.2) and shaking overnight in a water bath at 25° to give a saturated solution. The concentration of the compound in the filtered solution was calculated on the basis of spectrophotometric measurements, i.e. comparison of the ultraviolet absorbance at the λmax for the saturated solution with the absorbance value observed for a known concentration of the compound.

[2] = test system: guanosine monophosphate kinase and extract of HSV1-infected HeLa cells; assay type: biochemical; details: gmp kinase, 4 h
Method: To the rest of the incubation mixtures were now added 0.04 units of guanosine monophosphate kinase and 20 μl of an extract of HSV1-infectedHeLa cells [The cells were infected with the virus at a multiplicity of 10 and harvested 8 hours later; they were suspended in a solution containing 0.35M KH2 PO4, pH 7.5, 0.5 mM dithiothreitol, 0.2% polyoxyethylene(9)octylphenol (Nonidet P-40), 14% glycerol at 50 mg/ml and after 30 minutes at 4° were centrifuged at […]; the supernatant liquid was the crude extract.] Incubation was continued at 30° for 4 more hours, after which samples were analyzed by HPLC and the amount of the triphosphate derivatives of each compound determined by integration of the area under the respective chromatographic peak.

[3] = test system: Herpes simplex virus type I (HSV-1), strain Schooler; assay: Treatment of Herpes simplex virus infection in mice, intraperitoneal HSV-1, subcutaneous treatment (Table II); assay type: in vivo, HSV-1; ICR/Ha mice; details: for Percent Survival: at 15 days
[4] = test system: Herpes simplex virus type I (HSV-1), strain Schooler; assay: Treatment of Herpes simplex virus infection in mice, repeat experiment (Table III); assay type: in vivo, HSV-1; ICR/Ha mice; details: for Percent Survival: at 15 days
Method: Twenty gram ICR/Ha mice were injected intraperitoneally (ip) with 0.5 ml of a 10^-5 dilution of a stock preparation of Herpes simplex virus type I (HSV-1), strain Schooler. This virus challenge infected each animal with approximately 100 LD50. […] The placebo group was composed of 45 animals. All compounds were solubilized in physiological saline, pH 11.5.

Genotoxicity = details: qualitative statement
[5] = test system: Herpes simplex virus type 1; assay: Tube dilution assay, viral cytopathology of HSV-1 in rabbit kidney cell cultures; details: Human alphaherpesvirus 1, in Oryctolagus cuniculus, read-out: Minimum Effective Concentration, Strain Schooler
[6] = test system: Herpes simplex virus type 2; assay: Tube dilution assay, viral cytopathology of HSV-2 in rabbit kidney cell cultures; details: Human alphaherpesvirus 2, in Oryctolagus cuniculus, read-out: Minimum Effective Concentration
[7] = biological target: T1, guanosine monophosphate kinase from hog brain (Sus scrofa, UniProt P31006); assay: Kinetic parameters with purified guanosine monophosphate kinase; assay type: biochemical; details: for Vmax: 25°, pH 7.6
T1 sequence (P31006 1-198): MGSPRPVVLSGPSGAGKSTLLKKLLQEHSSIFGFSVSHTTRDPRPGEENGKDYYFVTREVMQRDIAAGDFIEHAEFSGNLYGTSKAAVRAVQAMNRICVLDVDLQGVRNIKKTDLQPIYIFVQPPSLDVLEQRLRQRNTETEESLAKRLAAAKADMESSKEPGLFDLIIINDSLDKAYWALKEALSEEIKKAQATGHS

mycoplasmal growth = assay: Inhibition of mycoplasmal growth in chickens; assay type: in vivo; details: systemic, 875 μg/bird
HSV-1 PAA ®1 = details: HSV-1 PAA R1
[8] = test system: HSV-1 wild type Strain 17; assay: Drug sensitivity of HSV-1 wild type Strain 17; details: HSV-1 wild type Strain 17
Recombinant 6-26 = assay: Drug sensitivity of HSV-1/HSV-2 intertypic Recombinant 6-26; details: Recombinant 6-26
Recombinant 6-30 = assay: Drug sensitivity of HSV-1/HSV-2 intertypic Recombinant 6-30; details: Recombinant 6-30
Recombinant 6-34 = assay: Drug sensitivity of HSV-1/HSV-2 intertypic Recombinant 6-34; details: Recombinant 6-34
Recombinant 6-19 = assay: Drug sensitivity of HSV-1/HSV-2 intertypic Recombinant 6-19; details: Recombinant 6-19

Compound: Nc1nc2c(ncn2COCC(O)CO)c(=O)[nH]1 (stereo not drawn) [Compound of Formula I, 9-(2,3-Dihydroxy-1-propoxymethyl)guanine]
solubility [1]: 3600 µg/mL | converted to the triphosphate [2]: 55% | Avg. Survival Time ([3]; 3.1 mg/kg/day s.c.): 6.3 days | Percent Survival ([3]; 3.1 mg/kg/day s.c.): 0% | Avg. Survival Time ([3]; 12.5 mg/kg/day s.c.): 9.0 days | Percent Survival ([3]; 12.5 mg/kg/day s.c.): 26% | Avg. Survival Time ([3]; 50 mg/kg/day s.c.): 11.8 days | Percent Survival ([3]; 50 mg/kg/day s.c.): 60% | Avg. Survival Time ([4]; 3.1 mg/kg/day s.c.): 7.2 days | Percent Survival ([4]; 3.1 mg/kg/day s.c.): 6% | Avg. Survival Time ([4]; 12.5 mg/kg/day s.c.): 9.8 days | Percent Survival ([4]; 12.5 mg/kg/day s.c.): 33% | Avg. Survival Time ([4]; 50 mg/kg/day s.c.): 10.5 days | Percent Survival ([4]; 50 mg/kg/day s.c.): 36% | calculated average relative potency to acycloguanosine (95% CI) ([4]; combined results of both mouse experiments): 9.2 | genotoxicity (Genotoxicity): lack of genotoxicity | minimal effective concentration [5]: 1 to 3 µg/mL | minimal effective concentration [6]: 3 to 6 µg/mL

relative efficiency as substrate (Vmax /Km) vs acycloguanosine monophosphate [7]: 492 to 1 | Vmax [7]: 7.1 µg/min/mg
Compound: Nc1nc2c(ncn2COC(CO)COP(=O)(O)O)c(=O)[nH]1 (stereo not drawn) [Compound of Formula II Monophosphate]

Compound: Nc1nc2c(ncn2[C@H]2C[C@H](O)[C@@H](COP(=O)(O)O)O2)c(=O)[nH]1 [Deoxyguanosine monophosphate, deoxyguanosine monophosphate, reference compound]
Vmax [7]: 17.2 µg/min/mg

Compound: CCCCCCCC(=O)OCC(COC(=O)CCCCCCC)OCn1cnc2c(=O)[nH]c(N)nc21 [Example 11, 9-(1,3-Dioctanoyloxy-2-propoxymethyl)guanine]
inhibition of mycoplasmal growth (mycoplasmal growth): 75%

Compound: O=C(O)CP(=O)(O)O [PAA, phosphonoacetic acid, reference compound]
Sensitivity (S) or Resistance (R) (HSV-1 PAA ®1): R | Sensitivity (S) or Resistance (R) (HSV-2 TS6; HSV-2 TS6): S | sensitivity of HSV-2 Ts6 (HSV-2 TS6; HSV-2 Ts6): sensitive | Sensitivity (S) or Resistance (R) [8]: S | Sensitivity (S) or Resistance (R) (Recombinant 6-26): S | Sensitivity (S) or Resistance (R) (Recombinant 6-30): S | Sensitivity (S) or Resistance (R) (Recombinant 6-34): R | Sensitivity (S) or Resistance (R) (Recombinant 6-19): R
